Test results taken from patent EP0266890A1, “Imidazopyridine derivatives, their production, and pharmaceutical compositions containing them” (YAMANOUCHI PHARMACEUTICAL CO. LTD., priority 1986, dated 1988).

How the values were obtained:
Gastric Acid Secretion = assay: Histamine-stimulated gastric acid secretion in Heidenhain pouch dogs; assay type: in vivo, beagle dogs; conditions: histamine s.c. 1 hour after drug administration
Experimental: Six male beagle dogs (13 to 17kg) with well-established Heidenhain pouches were used for the construction of gastric acid secretion response curves. Food was withheld but water allowed for 18 hours before each experiment. Histamine (60 Mg/kg/hr) was administered subcutaneously 1 hour after drug administration. The pouch secretion was allowed to drain into a collection vessel which was changed every 15 minutes. Gastric juice volume was recorded, and acid concentration was determined by titration with 0.05N NaOH up to pH 7.0 using an automatic titrator (Hiranuma Sangyo Co., COMTITE-7).

in vivo = assay: in vivo; parameters: species or system Fischer-rats; conditions: rat, po
Experimental: That is, LD50(p.o.) of the compound was higher than 1,000 mg/kg.

| SMILES | Gastric Acid Secretion Inhibitory Rate (%) Pouch Dog 3 mg/kg p.o. (Gastric Acid Secretion) [%] | LD50 at 24 h (in vivo) [mg/kg] |
| --- | --- | --- |
| CCCCCOc1cccn2c(CC#N)c(C)nc12 [Example 12, 3-Cyanomethyl-2-methyl-8-pentyloxyimidazo-[1,2-a]pyridine] | 61 | – |
| Cc1nc2c(OCc3ccccc3)cccn2c1CC#N [Known compound A, reference compound] | 36 | – |
| CC(C)=CCOc1cccn2c(CC#N)c(C)nc12 [Example 16, 3-Cyanomethyl-2-methyl-8-[(3-methyl-2-butenyl)-oxy]imidazo[1,2-a]pyridine] | 82 | > 1000 |
| C=CCOc1cccn2c(CC#N)c(C)nc12 [Known compound B, reference compound] | 21 | – |
| Cc1nc2c(OCC3CCCCC3)cccn2c1CC#N [Example 11, 3-cyanomethyl-8-cyclohexylmethoxy-2-methylimidazo-[1,2-a]-pyridine] | 67 | – |
